From ChEMBL document CHEMBL1142388, “Carbonic anhydrase activators: activation of the human tumor-associated isozymes IX and XII with amino acids and amines” (Bioorg Med Chem, 2008)

Assays:
[1] = target: Carbonic anhydrase 9 (Homo sapiens) (UniProt Q16790); assay: Activation of human recombinant CA9 catalytic domain by stopped-flow CO2 hydration method
[2] = target: Carbonic anhydrase 12 (Homo sapiens) (UniProt O43570); assay: Activation of human recombinant CA12 catalytic domain by stopped-flow CO2 hydration method
Chain of Carbonic anhydrase 12 (Homo sapiens) (O43570 whole entry, the tested form may be a part): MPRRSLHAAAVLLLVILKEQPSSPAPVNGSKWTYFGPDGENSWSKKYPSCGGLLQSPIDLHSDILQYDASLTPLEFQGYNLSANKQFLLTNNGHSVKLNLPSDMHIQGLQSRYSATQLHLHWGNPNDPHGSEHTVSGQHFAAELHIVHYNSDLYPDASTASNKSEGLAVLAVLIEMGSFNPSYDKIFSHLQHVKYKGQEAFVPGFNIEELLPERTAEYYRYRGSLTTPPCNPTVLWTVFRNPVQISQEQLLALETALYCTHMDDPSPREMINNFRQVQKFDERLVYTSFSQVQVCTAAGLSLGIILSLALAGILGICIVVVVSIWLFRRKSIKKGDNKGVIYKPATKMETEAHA

Compound | KA [1] [µM] | KA [2] [µM]
N[C@H](Cc1c[nH]cn1)C(=O)O | 12.5 | 24.7
N[C@@H](Cc1c[nH]cn1)C(=O)O | 9.71 | 37.5
NCCc1c[nH]c2ccc(O)cc12 | 33.1 | 0.3
N[C@@H](Cc1ccc(O)c(O)c1)C(=O)O | 51.3 | 1.67
N[C@H](Cc1ccc(O)c(O)c1)C(=O)O | 54.7 | 0.89
NCCc1ccccn1 | 0.013 | 0.69
N[C@@H](Cc1c[nH]c2ccccc12)C(=O)O | 37.5 | 26
NCCc1c[nH]cn1 | 35.1 | 27.9
N[C@H](Cc1c[nH]c2ccccc12)C(=O)O | 43.6 | 28.1
NCCN1CCNCC1 | 0.009 | 48.3
N[C@@H](Cc1ccc(O)cc1)C(=O)O | 25.3 | 25.8
CNCC(O)c1ccc(O)c(O)c1 (single isomer, unassigned) | 0.87 | 0.41
NCc1ccccn1 | 1.07 | 41.5
Nc1ccc(C[C@H](N)C(=O)O)cc1 | 48.7 | 1.09
NCCc1ccc(O)c(O)c1 | 0.92 | 0.67
NCCN1CCOCC1 | 0.43 | 0.24
